Reference: patent US20060069132A1, “Azolecarboxamide herbicides” (priority 2004, published 2006)

Assays:
Test in all cases: Test E pre-/postemergence herbicide test
johnsongrass = format: in vivo, Sorghum halepense
From the text: (§1) Seeds of plant species selected from bipinnate beggarticks (Bidens bipinnata L.), hairy beggarticks (Bidens radiata Thuill.), bermudagrass (Cynodon dactylon (L.) Pers.), Surinam grass (Urochloa decumbens (Staph) R. D. Webster, previously named Brachiaria decumbens Stapf), large crabgrass (Digitaria sanguinalis (L.) Scop.), green foxtail (Setaria viridis (L.) P. Beauv.), goosegrass (Eleusine indica (L.) Gaertn.), johnsongrass (Sorghum halepense (L.) Pers.), kochia (Kochia scoparia (L.) Schrad.), pitted morningglory (Ipomoea lacunosa L.), purple nutsedge (Cyperus rotundus L.), common ragweed (Ambrosia elatior L.), mustard (Brassica nigra (L.) W. D. J. Koch), guineagrass (Panicum maximum Jacq.), dallisgrass (Paspalum dilatatum Poir.), barnyardgrass (Echinochloa crus-galli (L). P. Beauv.), southern sandbur (Cenchrus echinatus L.), common sowthistle (Sonchus oleraceous L.), prickly sida (Sida spinosa L.), Italian ryegrass (Lolium multiflorum Lam.), common purslane (Portulaca oleracea L.), broadleaf signalgrass (Brachiaria platyphylla (Griseb.) Nash), common groundsel (Senecio vulgaris L.), common chickweed (Stellaria media (L.) Vill/Cyr.), tropical spiderwort (Commelina benghalensis L.), annual bluegrass (Poa annua L.), downy bromegrass (Bromus tectorum L.), itchgrass (Rottboellia cochinchinensis (L.) L.f.), quackgrass (Elytrigia repens (L.) Nevski), Canada horseweed (Erigeron Canadensis L.), field bindweed (Convolvulus arvensis L.), spotted spurge (Euphorbia maculata L.), common mallow (Malva sylvestris (=s silvestris) L.), and Russian thistle (Salsola kali L. ssp. Ruthenica (Iljin) Soo) were planted and treated preemergence with test chemicals formulated in a non-phytotoxic solvent mixture which included a surfactant.
(§2) At the same time, plants selected from these weed species were treated with postemergence applications of some of the test chemicals formulated in the same manner. Plants ranged in height from 2 to 18 cm (1- to 4-leaf stage) for postemergence treatments. Treated plants and controls were maintained in a greenhouse for 12 to 14 days, after which time all species were compared to controls and visually evaluated. Plant response ratings, summarized in Table E, are based on a scale of 0 to 100 where 0 is no effect and 100 is complete control. A dash (-) response means no test result.

green foxtail = format: in vivo, Setaria viridis
From the text: as §1, §2

Canada horseweed = format: in vivo, Erigeron Canadensis
From the text: as §1, §2

guineagrass = format: in vivo, Panicum maximum
From the text: as §1, §2

quackgrass = format: in vivo, Elytrigia repens
From the text: as §1, §2

Russian thistle = format: in vivo, Salsola kali; conditions: Preemergence
From the text: as §1, §2

southern sandbur = format: in vivo, Cenchrus echinatus
From the text: as §1, §2

large crabgrass = format: in vivo, Digitaria sanguinalis
From the text: as §1, §2

purple nutsedge = format: in vivo, Cyperus rotundus
From the text: as §1, §2

field bindweed = format: in vivo, Convolvulus arvensis
From the text: as §1, §2

downy bromegrass = format: in vivo, Bromus tectorum
From the text: as §1, §2

common sowthistle = format: in vivo, Sonchus oleraceous
From the text: as §1, §2

common chickweed = format: in vivo, Stellaria media
From the text: as §1, §2

common purslane = format: in vivo, Portulaca oleracea
From the text: as §1, §2

bermudagrass = format: in vivo, Cynodon dactylon
From the text: as §1, §2

mustard = format: in vivo, Brassica nigra
From the text: as §1, §2

[1] = Postemergence, 500 g ai/ha, scale 0 to 100
[2] = Postemergence, 250 g ai/ha, scale 0 to 100
[3] = Preemergence, 62 g ai/ha, scale 0 to 100
[4] = Preemergence, 125 g ai/ha, scale 0 (no effect) to 100 (complete control)
[5] = Preemergence, 250 g ai/ha, scale 0 (no effect) to 100 (complete control)
[6] = Preemergence, 500 g ai/ha, scale 0 (no effect) to 100 (complete control)
[7] = postemergence, 125 g ai/ha, scale 0 to 100
[8] = postemergence, 62 g ai/ha, scale 0 to 100

CCn1nc(C(C)(C)C)cc1C(=O)Nc1cc(C(=O)N(C)C)ccc1F [Compound 6, N-[5-[(dimethylamino)carbonyl]-2-fluorophenyl]-3-(1,1-dimethylethyl)-1-ethyl-1H-pyrazole-5-carboxamide]
Plant response rating, Johnsongrass (johnsongrass; [1]): 98
Plant response rating, Johnsongrass (johnsongrass; [2]): 98
Plant response rating, Johnsongrass (johnsongrass; [3]): 90
Plant response rating, Johnsongrass (johnsongrass; [4]): 90
Plant response rating, Johnsongrass (johnsongrass; [5]): 90
Plant response rating, Johnsongrass (johnsongrass; [6]): 100
Plant response rating, Johnsongrass (johnsongrass; [7]): 95
Plant response rating, Johnsongrass (johnsongrass; [8]): 90
Plant response rating, Foxtail, Green (green foxtail; [1]): 98
Plant response rating, Foxtail, Green (green foxtail; [2]): 98
Plant response rating, Foxtail, Green (green foxtail; [3]): 95
Plant response rating, Foxtail, Green (green foxtail; [4]): 95
Plant response rating, Foxtail, Green (green foxtail; [6]): 100
Plant response rating, Foxtail, Green (green foxtail; [7]): 90
Plant response rating, Foxtail, Green (green foxtail; [8]): 80
Plant response rating, Horseweed (Canada horseweed; [1]): 100
Plant response rating, Horseweed (Canada horseweed; [2]): 100
Plant response rating, Horseweed (Canada horseweed; [3]): 100
Plant response rating, Horseweed (Canada horseweed; [4]): 100
Plant response rating, Horseweed (Canada horseweed; [5]): 100
Plant response rating, Horseweed (Canada horseweed; [6]): 100
Plant response rating, Horseweed (Canada horseweed; [7]): 100
Plant response rating, Horseweed (Canada horseweed; [8]): 75
Plant response rating, Guineagrass (guineagrass; [1]): 98
Plant response rating, Guineagrass (guineagrass; [2]): 95
Plant response rating, Guineagrass (guineagrass; [3]): 95
Plant response rating, Guineagrass (guineagrass; [4]): 95
Plant response rating, Guineagrass (guineagrass; [5]): 95
Plant response rating, Guineagrass (guineagrass; [6]): 100
Plant response rating, Guineagrass (guineagrass; [7]): 90
Plant response rating, Guineagrass (guineagrass; [8]): 80
Plant response rating, Quackgrass (quackgrass; [1]): 98
Plant response rating, Quackgrass (quackgrass; [2]): 95
Plant response rating, Quackgrass (quackgrass; [3]): 95
Plant response rating, Quackgrass (quackgrass; [4]): 100
Plant response rating, Quackgrass (quackgrass; [6]): 100
Plant response rating, Quackgrass (quackgrass; [7]): 90
Plant response rating, Quackgrass (quackgrass; [8]): 80
Plant response rating, Thistle (Russian thistle; 62 g ai/ha, scale 0 to 100): 50
Plant response rating, Thistle (Russian thistle; 125 g ai/ha, scale 0 to 100): 70
Plant response rating, Thistle (Russian thistle; 250 g ai/ha, scale 0 (no effect) to 100 (complete control)): 70
Plant response rating, Thistle (Russian thistle; 500 g ai/ha, scale 0 (no effect) to 100 (complete control)): 80
Plant response rating, Sandbur (southern sandbur; [1]): 100
Plant response rating, Sandbur (southern sandbur; [2]): 100
Plant response rating, Sandbur (southern sandbur; [3]): 85
Plant response rating, Sandbur (southern sandbur; [4]): 100
Plant response rating, Sandbur (southern sandbur; [6]): 100
Plant response rating, Sandbur (southern sandbur; [7]): 95
Plant response rating, Sandbur (southern sandbur; [8]): 85
Plant response rating, Crabgrass, Large (large crabgrass; [1]): 98
Plant response rating, Crabgrass, Large (large crabgrass; [2]): 98
Plant response rating, Crabgrass, Large (large crabgrass; [3]): 80
Plant response rating, Crabgrass, Large (large crabgrass; [4]): 90
Plant response rating, Crabgrass, Large (large crabgrass; [6]): 100
Plant response rating, Crabgrass, Large (large crabgrass; [7]): 90
Plant response rating, Crabgrass, Large (large crabgrass; [8]): 75
Plant response rating, Nutsedge, Purple (purple nutsedge; [3]): 60
Plant response rating, Nutsedge, Purple (purple nutsedge; [4]): 100
Plant response rating, Nutsedge, Purple (purple nutsedge; [5]): 100
Plant response rating, Nutsedge, Purple (purple nutsedge; [6]): 100
Plant response rating, Nutsedge, Purple (purple nutsedge; [7]): 95
Plant response rating, Nutsedge, Purple (purple nutsedge; [8]): 75
Plant response rating, Bindweed, Field (field bindweed; [1]): 100
Plant response rating, Bindweed, Field (field bindweed; [2]): 100
Plant response rating, Bindweed, Field (field bindweed; [3]): 30
Plant response rating, Bindweed, Field (field bindweed; [4]): 60
Plant response rating, Bindweed, Field (field bindweed; [6]): 100
Plant response rating, Bindweed, Field (field bindweed; [7]): 95
Plant response rating, Bindweed, Field (field bindweed; [8]): 10
Plant response rating, Bromegrass, Downy (downy bromegrass; [1]): 100
Plant response rating, Bromegrass, Downy (downy bromegrass; [2]): 100
Plant response rating, Bromegrass, Downy (downy bromegrass; [3]): 90
Plant response rating, Bromegrass, Downy (downy bromegrass; [4]): 95
Plant response rating, Bromegrass, Downy (downy bromegrass; [5]): 95
Plant response rating, Bromegrass, Downy (downy bromegrass; [6]): 100
Plant response rating, Bromegrass, Downy (downy bromegrass; [7]): 98
Plant response rating, Bromegrass, Downy (downy bromegrass; [8]): 95
Plant response rating, Sowthistle (common sowthistle; [1]): 100
Plant response rating, Sowthistle (common sowthistle; [2]): 100
Plant response rating, Sowthistle (common sowthistle; [3]): 95
Plant response rating, Sowthistle (common sowthistle; [4]): 95
Plant response rating, Sowthistle (common sowthistle; [5]): 100
Plant response rating, Sowthistle (common sowthistle; [6]): 100
Plant response rating, Sowthistle (common sowthistle; [7]): 95
Plant response rating, Sowthistle (common sowthistle; [8]): 75
Plant response rating, Chickweed (common chickweed; [1]): 100
Plant response rating, Chickweed (common chickweed; [2]): 100
Plant response rating, Chickweed (common chickweed; [3]): 90
Plant response rating, Chickweed (common chickweed; [4]): 95
Plant response rating, Chickweed (common chickweed; [5]): 95
Plant response rating, Chickweed (common chickweed; [6]): 100
Plant response rating, Chickweed (common chickweed; [7]): 100
Plant response rating, Chickweed (common chickweed; [8]): 100
Plant response rating, Purslane (common purslane; [1]): 100
Plant response rating, Purslane (common purslane; [2]): 100
Plant response rating, Purslane (common purslane; [3]): 100
Plant response rating, Purslane (common purslane; [4]): 100
Plant response rating, Purslane (common purslane; [5]): 100
Plant response rating, Purslane (common purslane; [6]): 100
Plant response rating, Purslane (common purslane; [7]): 90
Plant response rating, Purslane (common purslane; [8]): 75
Plant response rating, Bermudagrass (bermudagrass; [1]): 98
Plant response rating, Bermudagrass (bermudagrass; [2]): 90
Plant response rating, Bermudagrass (bermudagrass; [3]): 90
Plant response rating, Bermudagrass (bermudagrass; [4]): 95
Plant response rating, Bermudagrass (bermudagrass; [5]): 95
Plant response rating, Bermudagrass (bermudagrass; [6]): 100
Plant response rating, Bermudagrass (bermudagrass; [7]): 80
Plant response rating, Bermudagrass (bermudagrass; [8]): 35
Plant response rating, Black Mustard (mustard; [1]): 100
Plant response rating, Black Mustard (mustard; [2]): 100
Plant response rating, Black Mustard (mustard; [3]): 100
Plant response rating, Black Mustard (mustard; [4]): 100
Plant response rating, Black Mustard (mustard; [5]): 100
Plant response rating, Black Mustard (mustard; [6]): 100
Plant response rating, Black Mustard (mustard; [7]): 100
Plant response rating, Black Mustard (mustard; [8]): 95
